Assays:
Assay in all cases: relative viability (nuclei count vs DMSO), 5 days (fraction); higher = more cells survive
[1] = compound: COc1cc(Nc2ncc(F)c(Nc3ccc4c(n3)NC(=O)C(C)(C)O4)n2)cc(OC)c1OC [R406] + Cc1nc(NC(=O)N2CCC[C@H]2C(N)=O)sc1-c1ccnc(C(C)(C)C(F)(F)F)c1 [Alpelisib] (partner 2 µM)
Method in brief: (§1)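 One day after seeding in 1536-well plates, lung cancer cell lines were dosed by pin tool. Dosing was either single-drug or a fixed anchor-drug dose plus five library-drug doses (not always all listed) in √10 steps. After 5 days, nuclei were stained in one fix-and-stain step and counted on 4× images, and relative viability is the nuclei count of treated wells over that of vehicle wells, given as the median of duplicate plates.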

[2] = compound: COc1cc(Nc2ncc(F)c(Nc3ccc4c(n3)NC(=O)C(C)(C)O4)n2)cc(OC)c1OC [R406] + O=C(CCCCCCC(=O)Nc1ccccc1)NO [Vorinostat] (partner 1 µM)
Method in brief: as §1

[3] = compound: O=C(/C=C/c1cccnc1)NCCCCC1CCN(C(=O)c2ccccc2)CC1 [Daporinad] + Cc1nc(Nc2ncc(C(=O)Nc3c(C)cccc3Cl)s2)cc(N2CCN(CCO)CC2)n1 [Dasatinib] (partner 0.075 µM)
Method in brief: as §1

[4] = compound: O=C(/C=C/c1cccnc1)NCCCCC1CCN(C(=O)c2ccccc2)CC1 [Daporinad] + C[C@]1(O)C[C@@H](c2nc(-c3ccc4ccc(-c5ccccc5)nc4c3)c3c(N)nccn32)C1 [Linsitinib] (partner 1 µM)
Method in brief: as §1

UMC-11
relative viability ([1]; first compound 0.08 µM): 0.969
relative viability ([1]; first compound 0.253 µM): 1.06
relative viability ([1]; first compound 0.8 µM): 1.15
relative viability ([1]; first compound 2.53 µM): 0.89
relative viability ([1]; first compound 8 µM): 0.386
relative viability ([2]; first compound 0.08 µM): 0.361
relative viability ([2]; first compound 0.253 µM): 0.312
relative viability ([2]; first compound 0.8 µM): 0.39
relative viability ([2]; first compound 2.53 µM): 0.304
relative viability ([2]; first compound 8 µM): 0.127
relative viability ([3]; first compound 0.0005 µM): 0.486
relative viability ([3]; first compound 0.001581 µM): 0.507
relative viability ([3]; first compound 0.005 µM): 0.394
relative viability ([3]; first compound 0.01581 µM): 0.505
relative viability ([4]; first compound 0.0005 µM): 1.02
relative viability ([4]; first compound 0.001581 µM): 0.975
relative viability ([4]; first compound 0.005 µM): 1.1
relative viability ([4]; first compound 0.01581 µM): 1.03

Reference: the supplement of paper PMC10307832
